Measured values published in patent US8658668B2, “PI3 kinase/mTOR dual inhibitor” (Eli Lilly and Company, priority 2011, dated 2014).

What was measured:
[1] = test system: human non-small cell lung cancer cells NCI-H1975; experiment: Xenograft tumor model, NCI-H1975; type: in vivo, mouse; settings: oral gavage
Experimental: Expand human glioblastoma cells U87MG and human renal carcinoma cells 786-O, in culture, harvest and inject subcutaneously onto the rear flank of athymic nude mice. Expand human non-small cell lung cancer cells NCI-H1975 in culture, harvest and inject subcutaneously onto the rear flank of CD-1 nu/nu mice. Prepare test compound in an appropriate vehicle and administer by oral gavage when tumors are established (7-21 days after implant). Tumor response is determined by tumor volume measurement performed twice a week during the course of treatment. Body weight is taken as a general measurement of toxicity.

[2] = test system: HNXF 908 human tumor xenograft cells; experiment: Oncotest tumor clonogenic assay, HNXF 908; type: cell-based; settings: colony formation, Head and Neck HNXF 908, squamous epithelium carcinoma, md, read-out: Absolute IC50
[3] = test system: RXF 631 human tumor xenograft cells; experiment: Oncotest tumor clonogenic assay, RXF 631; type: cell-based; settings: colony formation, Renal RXF 631, hypernephroid adeno carcinoma, wd, read-out: Absolute IC50
[4] = test system: PRXF DU145 human tumor xenograft cells; experiment: Oncotest tumor clonogenic assay, PRXF DU145; type: cell-based; settings: DU-145, colony formation, Prostate PRXF DU145, adeno carcinoma, ud, read-out: Absolute IC50
[5] = test system: RXF 393 human tumor xenograft cells; experiment: Oncotest tumor clonogenic assay, RXF 393; type: cell-based; settings: colony formation, Renal RXF 393, hypernephroid carcinoma, pd, read-out: Absolute IC50
[6] = test system: LXFL 430 human tumor xenograft cells; experiment: Oncotest tumor clonogenic assay, LXFL 430; type: cell-based; settings: colony formation, NSCLC LXFL 430, large cell lung carcinoma, pd, read-out: Absolute IC50
[7] = test system: MEXF 989 human tumor xenograft cells; experiment: Oncotest tumor clonogenic assay, MEXF 989; type: cell-based; settings: colony formation, Melanoma MEXF 989, amelanotic melanoma, md, read-out: Absolute IC50
[8] = test system: LXFA 1041 human tumor xenograft cells; experiment: Oncotest tumor clonogenic assay, LXFA 1041; type: cell-based; settings: colony formation, NSCLC LXFA 1041, adeno carcinoma, md, read-out: Absolute IC50
[9] = test system: p110α(E545K)/myc leukemic cells; experiment: E545Kp110a leukemia model; type: in vivo, mouse; settings: oral gavage, day 5 through day 11, blood on day 12
From the text: Leukemia cell line creation: Transduce embryonic liver cells derived from transgenic embryos, B6.Cg-Tg[IghMyc]22Bri/J (Jackson Laboratory, Bar Harbor, Me.), with a retrovirus expressing a clinically-isolated activating mutation of human p110α (E545K as an amino acid change, G1633A on the nucleotide level) under control of the viral 5′ LTR (long terminal repeat) and expressing GFP (green fluorescent protein) under control of the PGK promoter (MSCV6 FLAG-p110α G1633A PGK/GFP) to create target-driven leukemia cells. Transfer the transduced cells into a lethally irradiated host animal. The transduced cells repopulate the hematopoietic stem cells among bone marrow of the recipient and rescue the recipient animal from radiation-induced lethality due to ablation of the recipient's original bone marrow. Observe the rescued primary animals for development of leukemia via weekly monitoring white blood cell counts in a small amount of blood (10 μL) collected retro-orbitally. Collect blood from primary irradiated animals with confirmed leukemia and serially passage to secondary (non-irradiated) host animals in order to establish as a leukemic cell line.
Subject Animals: Use female C57BL/6 mice (Taconic, Cambridge City, Ind.), 8 to 10 week old and 20 to 22 g in weight, as leukemia recipient animals. Acclimate animals on normal low fat diet (4.5%) prior to inoculation and continue on that diet ad libitum for the duration of the study. Identify individual mice from each group by ear punches. Inoculate animals with leukemic cells from donor animals (day 0).
Syngeneic leukemia model: From a donor animal previously inoculated with the leukemic cell line of interest, collect a small amount of blood retro-orbitally (10 μL) and measure the leukemia cell burden by white blood cell count. From animals with sufficient leukemic burden, collect donor blood, dilute with phosphate-buffered saline (PBS) to 500,000 white blood cells per 200 μL and inject 200 μL per animal retro-orbitally on day 0 to initiate leukemia. […]

[10] = molecular target: PI3Ka (Homo sapiens, UniProt P42336); experiment: PI3Ka Scintillation Proximity Assay; type: biochemical; settings: 10 μM ATP; n=2; read-out: absolute IC50
Sequence of PI3Ka (P42336 whole entry): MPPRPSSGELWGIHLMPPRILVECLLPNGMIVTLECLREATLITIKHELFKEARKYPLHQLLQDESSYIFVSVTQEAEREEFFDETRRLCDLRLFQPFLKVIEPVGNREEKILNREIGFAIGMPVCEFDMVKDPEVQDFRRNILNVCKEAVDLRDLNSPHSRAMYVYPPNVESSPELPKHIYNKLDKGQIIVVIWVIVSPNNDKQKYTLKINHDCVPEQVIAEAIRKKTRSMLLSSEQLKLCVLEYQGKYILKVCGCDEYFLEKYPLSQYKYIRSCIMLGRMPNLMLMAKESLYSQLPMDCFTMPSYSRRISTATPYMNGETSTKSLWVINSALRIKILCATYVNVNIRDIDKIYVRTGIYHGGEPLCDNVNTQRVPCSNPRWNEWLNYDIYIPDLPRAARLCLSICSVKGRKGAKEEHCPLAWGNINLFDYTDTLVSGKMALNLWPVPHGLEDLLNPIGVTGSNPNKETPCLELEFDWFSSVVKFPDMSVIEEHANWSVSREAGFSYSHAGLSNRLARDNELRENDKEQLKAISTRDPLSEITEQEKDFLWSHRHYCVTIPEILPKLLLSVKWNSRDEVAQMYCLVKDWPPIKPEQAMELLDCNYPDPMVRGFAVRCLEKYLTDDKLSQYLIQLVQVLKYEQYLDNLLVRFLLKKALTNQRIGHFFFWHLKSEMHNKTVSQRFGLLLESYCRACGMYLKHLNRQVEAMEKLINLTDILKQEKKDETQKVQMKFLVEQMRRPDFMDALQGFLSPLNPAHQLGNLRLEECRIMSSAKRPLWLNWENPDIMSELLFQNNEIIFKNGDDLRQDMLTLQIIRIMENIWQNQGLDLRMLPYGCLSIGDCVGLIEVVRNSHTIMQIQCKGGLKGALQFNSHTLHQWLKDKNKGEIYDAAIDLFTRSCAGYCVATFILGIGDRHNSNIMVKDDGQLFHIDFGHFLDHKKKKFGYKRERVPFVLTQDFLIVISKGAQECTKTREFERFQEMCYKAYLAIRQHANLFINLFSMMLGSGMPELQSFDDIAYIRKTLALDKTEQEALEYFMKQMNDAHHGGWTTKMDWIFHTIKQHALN
Sequence of PI3Ka (P27986 whole entry partner): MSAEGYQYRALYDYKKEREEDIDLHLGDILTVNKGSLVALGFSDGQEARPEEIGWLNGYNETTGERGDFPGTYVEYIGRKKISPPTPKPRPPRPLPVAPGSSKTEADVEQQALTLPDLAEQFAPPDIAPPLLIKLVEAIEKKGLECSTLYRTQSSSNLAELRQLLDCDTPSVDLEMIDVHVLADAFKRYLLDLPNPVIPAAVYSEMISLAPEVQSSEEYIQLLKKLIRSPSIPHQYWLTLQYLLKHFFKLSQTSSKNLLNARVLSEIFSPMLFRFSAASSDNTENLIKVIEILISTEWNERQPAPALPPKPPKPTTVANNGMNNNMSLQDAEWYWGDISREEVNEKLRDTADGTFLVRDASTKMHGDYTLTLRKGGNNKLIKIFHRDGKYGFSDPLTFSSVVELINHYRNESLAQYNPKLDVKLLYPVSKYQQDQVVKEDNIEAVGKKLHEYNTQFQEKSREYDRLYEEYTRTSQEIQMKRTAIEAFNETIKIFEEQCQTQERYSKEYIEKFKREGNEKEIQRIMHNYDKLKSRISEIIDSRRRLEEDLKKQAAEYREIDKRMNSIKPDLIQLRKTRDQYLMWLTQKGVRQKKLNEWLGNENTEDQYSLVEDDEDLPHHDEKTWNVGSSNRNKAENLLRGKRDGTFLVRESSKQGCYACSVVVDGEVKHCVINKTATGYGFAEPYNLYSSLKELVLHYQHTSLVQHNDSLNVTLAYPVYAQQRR
Experimental: Use the PI3Ka Scintillation Proximity Assay (PI3Ka SPA) to determine compound IC50 values against PI3Ka kinase. This assay assesses the activity PI3Ka in the presence of compound inhibitors by measuring incorporation of γ-P^33-ATP into phosphatidylinositol (4,5)bisphosphate (PIP2). Perform the kinase reactions in 40 μL reaction volumes in 96-well half-area flat bottom white with clear bottom polystyrene plates. Add PI3Ka to start the reaction. Final reaction conditions are 43.75 mM 2,2-bis(hydroxymethyl)-2,2′,2″-nitrilotriethanol (Bis-Tris) pH 7.0, 306 mM sodium chloride (NaCl), 1.76 mM polyethylene glycol octylphenyl ether (Triton® X-100), 10 μM adenosine triphosphate (ATP), 2.9 mM magnesium chloride (MgCl2) and 1 μCi per well γ-P^33-adenosine triphosphate (γ-P^33-ATP), 5.0 nM PI3Ka human recombinant enzyme, 0.2 mM palmitoyl-oleoyl phosphatidylserine (POPS), 0.04 mM phosphatidylinositol (4,5)bisphosphate (PIP2), 4% DMSO and serial dilutions of compound (diluted 1:3 from 20,000 to 1 nM). Incubate at RT for 90 min after adding PI3Ka. Stop the reaction with the addition of 40 μL of a stopping buffer containing 2.5 mg/mL neomycin linked beads (Amersham, Cat# RPNQ0506) and 21 mM ethylenediaminetetraacetic acid (EDTA). Centrifuge plates for 30 min at 1000 revolutions per minute (RPM) and count radioactivity with a Wallac Microbeta Trilux normalized for P^33. […]

IC50 [2]: 52 nM
IC50 [3]: 80 nM
IC50 [4]: 269 nM
IC50 [5]: 44 nM
IC50 [6]: 56 nM
IC50 [7]: 185 nM
IC50 [8]: 205 nM
IC50 [10]: 6.07 nM
SMILES: CO[C@@H](C)Cn1c(=O)n(C)c2cnc3ccc(-c4cncc(C(C)(C)O)c4)cc3c21 [Example 1, 8-[5-(1-Hydroxy-1-methylethyl)pyridin-3-yl]-1-[(2S)-2-methoxypropyl]-3-methyl-1,3-dihydro-2H-imidazo[4,5-c]quinolin-2-one]
% TGI ([1]; H1975, 3 mg/kg BID): 13.8%
% TGI ([1]; H1975, 6 mg/kg BID): 26.9%
% TGI ([1]; H1975, 10 mg/kg BID): 62.7%
% TGI ([9]; 5 mg/kg qd): 50.5%
% TGI ([9]; 10 mg/kg qd): 76.1%
% TGI ([9]; 20 mg/kg qd): 90.1%
